pIC50: −log10 of the molar value.

SIK2, sequence (Q9H0K1 whole entry, species assumed): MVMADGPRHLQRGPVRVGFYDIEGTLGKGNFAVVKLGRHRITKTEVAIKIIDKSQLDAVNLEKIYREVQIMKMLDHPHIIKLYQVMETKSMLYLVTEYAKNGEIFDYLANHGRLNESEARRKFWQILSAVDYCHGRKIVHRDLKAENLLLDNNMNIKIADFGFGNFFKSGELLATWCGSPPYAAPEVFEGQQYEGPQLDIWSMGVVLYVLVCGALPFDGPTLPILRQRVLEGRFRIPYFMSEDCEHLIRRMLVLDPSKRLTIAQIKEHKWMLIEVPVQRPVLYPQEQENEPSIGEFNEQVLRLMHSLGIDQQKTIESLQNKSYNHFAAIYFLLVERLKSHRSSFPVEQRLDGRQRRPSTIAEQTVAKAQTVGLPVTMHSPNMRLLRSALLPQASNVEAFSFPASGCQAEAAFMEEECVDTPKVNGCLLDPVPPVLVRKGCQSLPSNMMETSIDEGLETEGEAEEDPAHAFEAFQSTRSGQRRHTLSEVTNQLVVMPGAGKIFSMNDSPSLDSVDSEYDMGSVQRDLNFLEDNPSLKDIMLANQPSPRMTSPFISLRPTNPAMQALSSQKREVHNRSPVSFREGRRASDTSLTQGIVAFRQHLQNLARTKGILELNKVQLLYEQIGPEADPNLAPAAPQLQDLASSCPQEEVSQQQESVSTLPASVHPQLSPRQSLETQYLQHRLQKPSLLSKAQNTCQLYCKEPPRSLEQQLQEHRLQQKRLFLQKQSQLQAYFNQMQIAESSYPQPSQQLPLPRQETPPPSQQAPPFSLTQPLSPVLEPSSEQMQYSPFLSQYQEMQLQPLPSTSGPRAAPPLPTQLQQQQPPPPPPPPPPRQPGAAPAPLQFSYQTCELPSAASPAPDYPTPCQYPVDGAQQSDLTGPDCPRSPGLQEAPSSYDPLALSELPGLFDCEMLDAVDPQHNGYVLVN

The first assay concerns the target SIK2 (Homo sapiens, UniProt Q9H0K1). The assay can be described thus: SIK2 Enzymatic Assay High Version 2 (High ATP). The format is biochemical.
Conditions: not given
In outline:
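At room temperature, enzyme (6 nM, 2× final) was preincubated with compound for 30 min, then 6 mM ATP and 400 μM HDAC5tide (both 2× final) were added for 2 h. ADP formed was measured by ADP-Glo Max (2 h reagent, 1 h detection) using luminescence.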
By pIC50 is commonly meant the IC50 on a negative log10 scale, so that one unit is a factor of ten. Read a low pIC50 as a large IC50. For the molecule `Cc1cc(-c2ccn3nc(NC(=O)C4CC4)cc3c2)c(OC[C@@H]2CCCN2C)cn1` [Example 572, N-[5-[2-methyl-5-[[(2S)-1-methylpyrrolidin-2-yl]methoxy]-4-pyridyl]pyrazolo[1,5-a]pyridin-2-yl]cyclopropanecarboxamide], the negative logarithm of the IC50 (pIC50) was 7.10.
With `Cc1cc(-c2cn3cc(Nc4cnn(C)c4)nc3cn2)c(O[C@H]2C[C@H]3COC[C@@H](C2)N3)cn1` [Example 322, 6-[2-methyl-5-[[(1S,5R)-3-oxa-9-azabicyclo[3.3.1]nonan-7-yl]oxy]-4-pyridyl]-N-(1-methylpyrazol-4-yl)imidazo[1,2-a]pyrazin-2-amine], the pIC50 was 8.82. This pIC50 lies 1.72 log units higher than the previous one.
With `Cc1cc(-c2ccn3nc(Nc4ccc(S(C)(=O)=O)cn4)cc3c2)c(O[C@H]2C[C@H]3COC[C@@H](C2)N3)cn1` [Example 393, 5-[2-methyl-5-[[(1R,5S,7s)-3-oxa-9-azabicyclo[3.3.1]nonan-7-yl]oxy]-4-pyridyl]-N-(5-methylsulfonyl-2-pyridyl)pyrazolo[1,5-a]pyridin-2-amine], the pIC50 was 8.88.
For `Cc1cc(-c2ccn3nc(NC(=O)C4CC4)cc3c2)c(O[C@H]2CN(C)[C@H]2C)cn1` (single isomer, unassigned) [Example 456, (*S, *S)—N-[5-[5-(1,2-dimethylazetidin-3-yl)oxy-2-methyl-4-pyridyl]pyrazolo[1,5-a]pyridin-2-yl]cyclopropanecarboxamide], the pIC50 is 7.69.
Consider `Cc1cc(-c2ccn3nc(Nc4ccc(C(F)(F)F)cn4)cc3c2)c(O[C@H]2C[C@H]3COC[C@@H](C2)N3)cn1` [Example 374, 5-[2-methyl-5-[[(1S,5R,7s)-3-oxa-9-azabicyclo[3.3.1]nonan-7-yl]oxy]-4-pyridyl]-N-[5-(trifluoromethyl)-2-pyridyl]pyrazolo[1,5-a]pyridin-2-amine], for which the negative logarithm of the IC50 (pIC50) is over 9.07.
Consider `Cc1cc(-c2ccn3nc(Nc4ccc(C(=O)NCC5CCOCC5)cn4)cc3c2)c(O[C@H]2C[C@H]3COC[C@@H](C2)N3)cn1` [Example 373, 6-[[5-[2-methyl-5-[[(1R,5S,7s)-3-oxa-9-azabicyclo[3.3.1]nonan-7-yl]oxy]-4-pyridyl]pyrazolo[1,5-a]pyridin-2-yl]amino]-N-(tetrahydropyran-4-ylmethyl)pyridine-3-carboxamide], for which the pIC50 was over 9.07.

The same assay, now with this note: enzyme 6 nM, 6 mM ATP and 400 μM HDAC5tide (each 2× final concentration); 30 minutes pre-incubation, 2 hours; ADP-Glo Max luminescence; read-out: SIK2 high ATP IC50 (μM) (Test Example 2).
As usually defined, the IC50 is the point on the concentration scale where inhibition reaches its midpoint. Turning to `Cc1cc(-c2ccn3nc(Nc4cc(C)nc(C)n4)cc3c2)c(OCC(C)(C)C#N)cn1` [Example 262, 3-[[4-[2-[(2,6-dimethylpyrimidin-4-yl)amino]pyrazolo[1,5-a]pyridin-5-yl]-6-methyl-3-pyridyl]oxy]-2,2-dimethyl-propanenitrile], the IC50 turned out to be 0.00231 µM.
Consider `CNc1nc(C)cc(Nc2cc3cc(-c4cc(O)ncc4OCC(C)(C)C#N)ccn3n2)n1` [Example 674, 3-[[6-hydroxy-4-[2-[[6-methyl-2-(methylamino)pyrimidin-4-yl]amino]pyrazolo[1,5-a]pyridin-5-yl]-3-pyridyl]oxy]-2,2-dimethyl-propanenitrile], for which the half-maximal inhibitory concentration (IC50) was found to be 0.063 µM.
With `Cc1cc(-c2ccn3nc(Nc4cc(C)nc(C)n4)cc3c2)c(OCc2cccc(O)c2)cn1` [Example 272, 3-[[4-[2-[(2,6-dimethylpyrimidin-4-yl)amino]pyrazolo[1,5-a]pyridin-5-yl]-6-methyl-3-pyridyl]oxymethyl]phenol], the IC50 amounted to 0.00876 µM.
Turning to `Cc1cc(-c2ccn3nc(Nc4cnc5cc[nH]c5n4)cc3c2)c(OCC(C)(C)O)cn1` [Example 291, 2-methyl-1-[[6-methyl-4-[2-(5H-pyrrolo[2,3-b]pyrazin-3-ylamino)pyrazolo[1,5-a]pyridin-5-yl]-3-pyridyl]oxy]propan-2-ol], the half-inhibitory concentration (IC50) worked out at 0.00809 µM.
Regarding `Cc1cc(-c2ccn3nc(Nc4cc(C(F)(F)F)c(C(=O)NCC(F)(F)F)cn4)cc3c2)c(OCC(C)(C)O)cn1` [Example 651, 6-[[5-[5-(2-hydroxy-2-methyl-propoxy)-2-methyl-4-pyridyl]pyrazolo[1,5-a]pyridin-2-yl]amino]-N-(2,2,2-trifluoroethyl)-4-(trifluoromethyl)pyridine-3-carboxamide], the 50% inhibitory concentration (IC50) came to 0.194 µM.
On the same count and under the same terms, with `Cc1cc(Nc2cc3cc(-c4cc(OCC#N)ncc4OCC(C)(C)C#N)ccn3n2)nc(C)n1` [Example 672, 3-[[6-(cyanomethoxy)-4-[2-[(2,6-dimethylpyrimidin-4-yl)amino]pyrazolo[1,5-a]pyridin-5-yl]-3-pyridyl]oxy]-2,2-dimethyl-propanenitrile] the figure was 0.004 µM.
For the molecule `Cc1cc(-c2ccn3nc(NC(=O)C4CC4)cc3c2)c(OCC2(O)CCC(F)(F)CC2)cn1` (racemic) [Example 188, rac-N-[5-[5-[(4,4-difluoro-1-hydroxy-cyclohexyl)methoxy]-2-methyl-4-pyridyl]pyrazolo[1,5-a]pyridin-2-yl]cyclopropanecarboxamide], the IC50 turned out to be 0.0478 µM.
Still for that read-out and setting: next, `CC(C)(C#N)COc1cnc(OCC(F)F)cc1-c1ccn2nc(Nc3cccnn3)cc2c1` [Example 688, 3-[[6-(2,2-difluoroethoxy)-4-[2-(pyridazin-3-ylamino)pyrazolo[1,5-a]pyridin-5-yl]-3-pyridyl]oxy]-2,2-dimethyl-propanenitrile]: 0.00121 µM.
Same read-out and setting: next, `Cc1cc(-c2ccn3nc(Nc4ccc(C(=O)NC(C)C)c(C)c4)cc3c2)c(OCC(C)(C)O)cn1` [Example 345, 4-[[5-[5-(2-hydroxy-2-methyl-propoxy)-2-methyl-4-pyridyl]pyrazolo[1,5-a]pyridin-2-yl]amino]-N-isopropyl-2-methyl-benzamide]: 0.0306 µM; `Cc1cc(-c2ccn3nc(Nc4cc(C)nc(C)n4)cc3c2)c(OC[C@@H]2CCS(=O)(=O)C2)cn1` (single isomer, unassigned) [Example 364, (*S)—N-(2,6-dimethylpyrimidin-4-yl)-5-[5-[(1,1-dioxothiolan-3-yl)methoxy]-2-methyl-4-pyridyl]pyrazolo[1,5-a]pyridin-2-amine]: 0.0441 µM.
Turning to `Cc1cc(Nc2cc3cc(-c4cc(OCC#N)ncc4O[C@H]4CC[C@H](O)CC4)ccn3n2)nc(C)n1` [Example 690, 2-[[4-[2-[(2,6-dimethylpyrimidin-4-yl)amino]pyrazolo[1,5-a]pyridin-5-yl]-5-(4-hydroxycyclohexoxy)-2-pyridyl]oxy]acetonitrile], the IC50 is 0.00685 µM.
In the case of `CC(C)(C#N)COc1cnc(OC(F)F)cc1-c1ccn2nc(NC(=O)C3CC3)cc2c1` [Example 665, N-[5-[5-(2-cyano-2-methyl-propoxy)-2-(difluoromethoxy)-4-pyridyl]pyrazolo[1,5-a]pyridin-2-yl]cyclopropanecarboxamide], the IC50 worked out at 0.0244 µM.
Consider `COc1cc(-c2ccn3nc(Nc4cc(C)nc(C)n4)cc3c2)c(OC[C@H]2OCC[C@@H]2O)cn1` [Example 498, (2R,3S)-2-[[4-[2-[(2,6-dimethylpyrimidin-4-yl)amino]pyrazolo[1,5-a]pyridin-5-yl]-6-methoxy-3-pyridyl]oxymethyl]tetrahydrofuran-3-ol], for which the IC50 was found to be 0.0414 µM.
Turning to `CN1CC(Oc2nnc(Cl)cc2-c2ccn3nc(NC(=O)C4CC4)cc3c2)C1` [Example 485, N-[5-[6-chloro-3-(1-methylazetidin-3-yl)oxy-pyridazin-4-yl]pyrazolo[1,5-a]pyridin-2-yl]cyclopropanecarboxamide], the IC50 was under 0.000847 µM.
The same measure, in the same setting: next, `Cc1cc(-c2ccn3nc(Nc4cc(C)nc(C)n4)cc3c2)c(OCC(C)(C)N)cn1` [Example 359, 5-[5-(2-amino-2-methyl-propoxy)-2-methyl-4-pyridyl]-N-(2,6-dimethylpyrimidin-4-yl)pyrazolo[1,5-a]pyridin-2-amine]: 0.0271 µM.
On to “(*S)-4-[[6-(difluoromethoxy)-4-[2-[(2,6-dimethylpyrimidin-4-yl)amino]pyrazolo[1,5-a]pyridin-5-yl]-3-pyridyl]oxymethyl]-1,5,5-trimethyl-pyrrolidin-2-one [Example 734]”, for which the half-maximal inhibitory concentration (IC50) turned out to be 0.00307 µM.
Consider `Cc1cc(-c2cn3cc(NC(=O)C4CC4)nc3cn2)c(O[C@H]2CC[C@H](O)CC2)cn1` [Example 653, N-[6-[5-(4-hydroxycyclohexoxy)-2-methyl-4-pyridyl]imidazo[1,2-a]pyrazin-2-yl]cyclopropanecarboxamide], for which the half-maximal inhibitory concentration (IC50) amounted to 0.136 µM.
Take `CC#Cc1cc(-c2ccn3nc(Nc4cc(C)nc(C)n4)cc3c2)c(OC[C@@H]2OCC[C@H]2O)cn1` [Example 671, (2S,3R)-2-[[4-[2-[(2,6-dimethylpyrimidin-4-yl)amino]pyrazolo[1,5-a]pyridin-5-yl]-6-prop-1-ynyl-3-pyridyl]oxymethyl]tetrahydrofuran-3-ol]: the IC50 came out at 0.204 µM.
For `CC(=O)N1CCO[C@H](COc2cnc(C)cc2-c2ccn3nc(Nc4cc(C)nc(C)n4)cc3c2)C1` [Example 628, 1-[(2S)-2-[[4-[2-[(2,6-dimethylpyrimidin-4-yl)amino]pyrazolo[1,5-a]pyridin-5-yl]-6-methyl-3-pyridyl]oxymethyl]morpholin-4-yl]ethanone], the concentration for half-maximal inhibition (IC50) came to 0.755 µM.
The same measure, in the same setting: with `Cc1cc(Nc2cc3cc(-c4cc(OCC(F)F)ncc4OCC(C)(C)C#N)ccn3n2)nc(C)n1` [Example 660, 3-[[6-(2,2-difluoroethoxy)-4-[2-[(2,6-dimethylpyrimidin-4-yl)amino]pyrazolo[1,5-a]pyridin-5-yl]-3-pyridyl]oxy]-2,2-dimethyl-propanenitrile] the figure was 0.184 µM.
On to `Cc1cc(-c2ccn3nc(Nc4cc(C)nc(C)n4)cc3c2)c(OCCC2(C#N)COC2)cn1` [Example 722, 3-[2-[[4-[2-[(2,6-dimethylpyrimidin-4-yl)amino]pyrazolo[1,5-a]pyridin-5-yl]-6-methyl-3-pyridyl]oxy]ethyl]oxetane-3-carbonitrile], for which the half-maximal inhibitory concentration (IC50) was determined as 0.01 µM.
For `COCc1nc(C)cc(Nc2cc3cc(-c4cc(C)ncc4O[C@H]4CC[C@H](O)CC4)ccn3n2)n1` [Example 225, (1r,4r)-4-((4-(2-((2-(methoxymethyl)-6-methylpyrimidin-4-yl)amino)pyrazolo[1,5-a]pyridin-5-yl)-6-methylpyridin-3-yl)oxy)cyclohexan-1-ol], the 50% inhibitory concentration (IC50) was determined as 0.00343 µM.

(Values after patent US20240158392A1 (Janssen Biotech, Inc., priority 2021, published 2024).)
